Laboratory results: patent publication US10590056B2, “ERR modulators and uses thereof” (CITY OF HOPE, priority 2017, dated 2020)
“Also recorded” adds a separate entry of the source.

What was measured:
Human ERα = target: T1, Human ERα (Homo sapiens, UniProt P03372); assay: Full-length ERα, estrogen receptor responsive reporter assay in CV-1 cells; format: cell-based; settings: up to 3 μM
T1 construct: Human ERα and ERβ were examined as full-length proteins using an estrogen receptor responsive reporter construct; expressed in transfected cells; host or cells: CV-1 cells, cytomegalovirus-driven expression vectors
T1 sequence (P03372 1-595): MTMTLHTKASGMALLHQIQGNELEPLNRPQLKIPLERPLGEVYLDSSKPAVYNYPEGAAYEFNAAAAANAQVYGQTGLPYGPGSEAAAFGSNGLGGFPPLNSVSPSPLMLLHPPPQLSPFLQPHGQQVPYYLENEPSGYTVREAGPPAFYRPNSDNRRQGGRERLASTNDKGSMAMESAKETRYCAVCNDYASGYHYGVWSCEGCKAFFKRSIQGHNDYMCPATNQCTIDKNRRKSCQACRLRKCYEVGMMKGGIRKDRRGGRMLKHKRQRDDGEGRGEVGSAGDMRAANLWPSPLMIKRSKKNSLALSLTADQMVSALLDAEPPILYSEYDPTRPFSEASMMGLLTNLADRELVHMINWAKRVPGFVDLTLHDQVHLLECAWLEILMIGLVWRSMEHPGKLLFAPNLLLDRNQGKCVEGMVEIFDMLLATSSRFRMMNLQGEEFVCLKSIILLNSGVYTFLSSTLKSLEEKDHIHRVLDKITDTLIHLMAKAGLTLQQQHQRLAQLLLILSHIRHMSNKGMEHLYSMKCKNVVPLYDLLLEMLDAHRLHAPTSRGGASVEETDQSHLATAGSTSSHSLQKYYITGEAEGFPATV
Description: (§1) Cell based transactivation assays were performed in CV-1 cells as described.^49 ERR activity was assayed with a GAL4 reporter construct and fusion proteins containing the ligand binding domains of human ERRα, human ERRβ and mouse ERRγ linked to the DNA binding domain of yeast GAL4. Human ERα and ERβ were examined as full-length proteins using an estrogen receptor responsive reporter construct. Reporter constructs (300 ng/10^5 cells) and cytomegalovirus-driven expression vectors (20-50 ng/10^5 cells) were added as indicated along with CMX-β-gal (500 ng/10^5 cells) as an internal control. Cells were transiently transfected by Lipofectamine as described.^56 Cells were incubated with DNA complexed liposomes for 2 hours and subsequently treated for approximately 45 hr with phenol red free DMEM FBS containing the indicated compounds. After exposure to ligand, the cells were harvested and assayed for luciferase and β-galactosidase activity. All points were assayed in triplicate and varied by less than 15%. Each experiment was repeated three or more times with similar results. Fold activation is reported.

Human ERβ = target: T2, Human ERβ (Homo sapiens, UniProt Q92731); assay: Full-length ERβ, estrogen receptor responsive reporter assay in CV-1 cells; format: cell-based; settings: up to 3 μM
T2 construct: Human ERα and ERβ were examined as full-length proteins using an estrogen receptor responsive reporter construct; expressed in transfected cells; host or cells: CV-1 cells, cytomegalovirus-driven expression vectors
T2 sequence (Q92731 whole entry): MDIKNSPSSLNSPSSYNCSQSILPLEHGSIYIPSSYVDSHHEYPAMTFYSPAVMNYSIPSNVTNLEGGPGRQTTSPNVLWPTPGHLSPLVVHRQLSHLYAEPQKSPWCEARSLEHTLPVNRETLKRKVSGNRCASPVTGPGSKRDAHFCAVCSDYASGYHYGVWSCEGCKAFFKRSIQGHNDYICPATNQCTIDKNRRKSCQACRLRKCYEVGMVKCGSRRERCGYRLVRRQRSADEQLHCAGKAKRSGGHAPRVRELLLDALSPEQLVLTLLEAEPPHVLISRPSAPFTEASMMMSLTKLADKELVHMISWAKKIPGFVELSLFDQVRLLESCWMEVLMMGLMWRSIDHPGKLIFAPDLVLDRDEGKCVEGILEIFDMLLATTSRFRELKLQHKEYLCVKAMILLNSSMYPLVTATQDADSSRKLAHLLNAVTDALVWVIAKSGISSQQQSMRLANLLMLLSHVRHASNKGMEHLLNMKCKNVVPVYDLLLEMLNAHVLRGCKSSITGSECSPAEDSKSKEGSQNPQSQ
Description: as §1

mouse ERRγ = target: T3, mouse ERRγ (Mus musculus, UniProt P62509); assay: GAL4 DBD-ERRγ LBD cotransfection luciferase reporter assay in CV-1 cells; format: cell-based; settings: for IC50: CV-1 cells co-transfected with reporter and expression vectors, mouse ERRγ LBD; for effect on ERRγ transcriptional activity: up to 3 μM; for activity on ERRγ, in words: cell-based cotransfection assay, 1g, 1h: at the higher dose
T3 construct: expressed in transfected cells; host or cells: CV-1 cells, cytomegalovirus-driven expression vectors
T3 sequence (P62509 233-457 limits assumed): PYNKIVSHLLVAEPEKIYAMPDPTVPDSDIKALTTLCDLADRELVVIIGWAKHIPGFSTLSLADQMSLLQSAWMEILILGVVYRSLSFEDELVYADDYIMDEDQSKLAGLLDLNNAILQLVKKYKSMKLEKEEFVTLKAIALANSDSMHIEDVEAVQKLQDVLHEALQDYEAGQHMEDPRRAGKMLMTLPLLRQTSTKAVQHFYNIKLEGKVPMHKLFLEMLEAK
Description: (§2) To assess the functional transcriptional activity of these compounds, cell-based assays using chimeric receptor Gal4 DNA-binding domain (DBD)-NR ligand binding domain cotransfection assay (LBDs of ERRα, ERRγ, and ERRβ) were performed. As an initial screen to determine the ERRγ and ERRβ inhibitory activity and selectivity, all compounds were evaluated for in vitro potency and selectivity by transfection testing, using CV-1 cells transfected with human and mouse ERRs. MH100×4 is a luciferase reporter with four copies of a GAL4 UASG response element, where GAL-I refers to the ligand-binding domain of the indicated receptor fused to the C-terminus of the GAL4 DNA-binding domain. Assays were performed using a Biomek automated workstation in which the genes for the nuclear receptor, as well as a plasmid containing a response element upstream of a luciferase cDNA, are transfected into CV-1 cells. Compounds were evaluated for their ability to inhibit human ERRs at 0.03, 0.1, 0.5, 1, 2.5, 3, and 10 μM test concentrations. […] Z-4-OHT used as a known ERRγ and ERRβ inverse agonist to compare the constitutive activity of unliganded ERRγ and ERRβ.
(§3) Cell culture. CV-1 cells were grown in Dulbecco's modified Eagle's medium supplemented with 10% resin charcoalstripped fetal bovine serum, 50 U/ml penicillin G, and 50 μg/ml streptomycin sulfate (DMEM-FBS) at 37° C. in 5% CO2. One day prior to transfection, cells were plated to 50%-80% confluence using phenol red free DMEM-FBS. The adenoviral construct, Ad-GFP and Ad-ERRα have been described.^55 Propagation of recombinant adenovirus was performed in 293 cells as described.^11
as §1, with “All points were assayed in triplicate and varied by less than 15%. Each experiment was repeated three or more times with similar results.” left out

human ERRα = target: T4, human ERRα (Homo sapiens, UniProt P11474); assay: GAL4 DBD-ERRα LBD cotransfection luciferase reporter assay in CV-1 cells; format: cell-based; settings: for IC50: CV-1 cells co-transfected with reporter and expression vectors, human ERRα LBD; for effect on ERRα transcriptional activity: up to 3 μM; for activity on ERRα, in words: cell-based screening
T4 construct: expressed in transfected cells; host or cells: CV-1 cells, cytomegalovirus-driven expression vectors
T4 sequence (P11474 193-421 limits assumed): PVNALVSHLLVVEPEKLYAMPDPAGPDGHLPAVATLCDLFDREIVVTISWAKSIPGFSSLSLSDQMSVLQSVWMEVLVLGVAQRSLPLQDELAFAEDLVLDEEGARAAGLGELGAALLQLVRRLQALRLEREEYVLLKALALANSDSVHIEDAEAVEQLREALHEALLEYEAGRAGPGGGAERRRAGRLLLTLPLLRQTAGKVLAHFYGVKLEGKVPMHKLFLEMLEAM
Description: as §2, §3
as §1, with “All points were assayed in triplicate and varied by less than 15%. Each experiment was repeated three or more times with similar results.” left out

human ERRβ = target: T5, human ERRβ (Homo sapiens, UniProt O95718); assay: GAL4 DBD-ERRβ LBD cotransfection luciferase reporter assay in CV-1 cells; format: cell-based; settings: for identified as (inverse agonist class / selectivity): ERRα, ERRβ, ERRγ transactivation panel; for activity on ERRβ, in words: cell-based cotransfection assay
T5 construct: expressed in transfected cells; host or cells: CV-1 cells, cytomegalovirus-driven expression vectors
T5 sequence (O95718 208-432 limits assumed): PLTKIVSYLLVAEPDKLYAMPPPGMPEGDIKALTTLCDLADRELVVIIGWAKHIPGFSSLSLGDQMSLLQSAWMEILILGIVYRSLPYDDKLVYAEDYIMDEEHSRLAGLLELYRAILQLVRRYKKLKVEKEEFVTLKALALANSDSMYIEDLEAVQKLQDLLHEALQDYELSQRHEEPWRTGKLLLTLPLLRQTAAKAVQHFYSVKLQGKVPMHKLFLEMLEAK
Description: as §2, §3
as §1, with “All points were assayed in triplicate and varied by less than 15%. Each experiment was repeated three or more times with similar results.” left out

ER = settings: % of the affinity of the Z isomer of 4-OHT; cited from earlier work
[1] = CV-1 cells co-transfected with reporter and expression vectors, human ERRβ LBD

Structure (SMILES) | IC50 (mouse ERRγ) [nM] | IC50 (human ERRα) [nM] | identified as (inverse agonist class / selectivity) (human ERRβ) | IC50 (human ERRβ; [1]) [nM] | activity on ERRγ, in words (mouse ERRγ) | further results
COC(=O)C(C)C/C(=C(\c1ccc(O)cc1)c1ccc(OCCN(C)C)cc1)c1ccccc1 (stereo not shown) [Compound 3h, (Z)-5-[4-(2-Dimethylamino-ethoxy)-phenyl]-5-(4-hydroxyphenyl)-2-methyl-4-phenyl-pent-4-enoic acid methyl ester] | 2780 | > 10000 | selective inverse agonist for the ERRβ; also recorded: ERRβ inverse agonists | – | – | effect on ERα transcriptional activity (Human ERα): no effect; effect on ERβ transcriptional activity (Human ERβ): no effect; effect on ERRγ transcriptional activity (mouse ERRγ): no effect; effect on ERRα transcriptional activity (human ERRα): no effect; IC50 (human ERRβ; cell-based transactivation in CV-1 cells): 50 nM
CC(CO)C/C(=C(\c1ccc(O)cc1)c1ccc(OCCN(C)C)cc1)c1ccccc1 (stereo not shown) [Compound 3n, (Z)-4-{1-[4-(2-Dimethylamino-ethoxy)-phenyl]-5-hydroxy-4-methyl-2-phenyl-pent-1-enyl}-phenol] | 2500 | > 10000 | ERRβ and ERRγ inverse agonists | 2250 | – | –
CC(C)/C(=C(\c1ccc(O)cc1)c1ccc(OCCN(C)C)cc1)c1ccccc1 [Compound 3a, (Z)-4-[1-(4-Dimethylaminoethoxy-phenyl)-3-methyl-2-phenyl-but-1-enyl]-phenol] | 290 | > 10000 | ERRβ and ERRγ inverse agonists | 210 | – | fold greater potency than Z-4-OHT on ERRγ (mouse ERRγ; compared to Z-4-OHT): 3 fold; fold greater potency than Z-4-OHT on ERRβ (human ERRβ; compared to Z-4-OHT): 3 fold
CCCC(=C(c1ccc(O)cc1)c1ccc(O)cc1)c1ccccc1 [Compound 1b, 1,1-Bis (4-hydroxyphenyl)-2-phenylpent-1-ene] | – | – | – | – | – | melting point: 192.7 °C
COC(=O)CC/C(=C(\c1ccc(O)cc1)c1ccc(OCCN(C)C)cc1)c1ccccc1 [Compound 3g, (Z)-5-[4-(2-Dimethylamino-ethoxy)-phenyl]-5-(4-hydroxyphenyl)-4-phenyl-pent-4-enoic acid methyl ester] | 3500 | > 10000 | – | 350 | – | effect on ERα transcriptional activity (Human ERα): no effect; effect on ERβ transcriptional activity (Human ERβ): no effect; effect on ERRγ transcriptional activity (mouse ERRγ): no effect; effect on ERRα transcriptional activity (human ERRα): no effect
COC(=O)C(C)CC(=C(c1ccc(O)cc1)c1ccc(O)cc1)c1ccccc1 (stereo not shown) [Compound 1h, 5,5-Bis (4-hydroxyphenyl)-2-methyl-4-phenyl-pent-4-enoic acid methyl ester] | 5500 | > 10000 | selective inverse agonists for the ERRβ | 300 | not active | activity on ERRα, in words (human ERRα): not active
CC/C(=C(\c1ccc(O)cc1)c1ccc(OCCN(C)C)cc1)c1ccccc1 [Compound Z-4-OHT, reference compound] | 600 | > 10000 | – | 650 | has the required activity; also recorded: more potent than E-4-OHT | activity on ERRβ, in words (human ERRβ): has the required activity; also recorded: more potent than E-4-OHT
COC(=O)CCC(=C(c1ccc(O)cc1)c1ccc(O)cc1)c1ccccc1 [Compound 1g, 5,5-Bis (4-hydroxyphenyl)-4-phenyl-pent-4-enoic acid methyl ester] | 6500 | > 10000 | selective inverse agonists for the ERRβ | 600 | not active | activity on ERRα, in words (human ERRα): not active
CC/C(=C(/c1ccc(O)cc1)c1ccc(OCCN(C)C)cc1)c1ccccc1 [Compound E-4-OHT, reference compound] | – | – | – | – | much less active | affinity for the ER relative to the Z isomer (ER): about 5%; activity on ERRβ, in words (human ERRβ): much less active
